ChEMBL document CHEMBL1138481, “Compounds binding to the S2-S3 pockets of thrombin” (J Med Chem, 2009)

Assays:
[1] = Inhibition of human alpha thrombin by surface plasmon resonance assay
[2] = Inhibition of human alpha thrombin by chromogenic substrate enzyme assay

Compound | Kd [1] [µM] | IC50 [2] [µM]
O=C(NCc1cccs1)[C@@H]1CCCN1C(=O)Cc1ccc2c(c1)OCO2 | 250 | > 400
CNC(=O)[C@@H]1CCCN1C(=O)CC1CCCCC1 | > 1000 | > 400
COCCNC(=O)[C@@H]1CCCN1C(=O)CCc1ccc(Cl)cc1 | 620 | > 400
CCCNC(=O)[C@@H]1CCCN1C(=O)[C@H](N)Cc1ccc(Cl)cc1 | 45 | 210
CCCNC(=O)[C@@H]1CCCN1C(=O)[C@H](N)C(c1ccccc1)c1ccccc1 | – | 18
COCCNC(=O)[C@@H]1CCCN1C(=O)[C@H](N)C(c1ccccc1)c1ccccc1 | 6.8 | 89
CCCNC(=O)[C@@H]1CCCN1C(=O)CCc1ccc(Cl)cc1 | > 1000 | > 400
CC(C)CNC(=O)[C@@H]1CCCN1C(=O)[C@H](N)C1CCCCC1 | 49 | 230
N[C@@H](C(=O)N1CCC[C@H]1C(=O)NCC1CCCCC1)C1CCCCC1 | 9 | 20
CNC(=O)[C@@H]1CCCN1C(=O)CC(c1ccccc1)c1ccccc1 | > 1000 | > 400
COCCNC(=O)[C@@H]1CCCN1C(=O)CC1CCCCC1 | > 1000 | > 400
CNC(=O)[C@@H]1CCCN1C(=O)CC1(O)c2ccccc2-c2ccccc21 | > 1000 | > 400
COCCNC(=O)[C@@H]1CCCN1C(=O)CC1(O)c2ccccc2-c2ccccc21 | 750 | > 400
CNC(=O)[C@@H]1CCCN1C(=O)Cc1ccc2c(c1)OCO2 | > 1000 | > 400
COCCNC(=O)[C@@H]1CCCN1C(=O)[C@H](N)Cc1ccc(Cl)cc1 | 140 | > 400
N[C@H](Cc1ccc(Cl)cc1)C(=O)N1CCC[C@H]1C(=O)NCc1cccs1 | 2.2 | 13
CNC(=O)[C@@H]1CCCN1C(=O)[C@H](NS(=O)(=O)Cc1ccccc1)C1CCCCC1 | 35 | 170
COCCNC(=O)[C@@H]1CCCN1C(=O)[C@H](O)C1CCCCC1 | > 1000 | > 400

Compound | Kd [1] [µM] | IC50 [2] [µM]
CCCNC(=O)[C@@H]1CCCN1C(=O)CC(c1ccccc1)c1ccccc1 | 270 | > 400
O=C(NCc1cccs1)[C@@H]1CCCN1C(=O)CC(c1ccccc1)c1ccccc1 | 34 | 120
N[C@@H](C(=O)N1CCC[C@H]1C(=O)NCc1cccs1)C(c1ccccc1)c1ccccc1 | 0.27 | 1.6
CNC(=O)[C@@H]1CCCN1C(=O)[C@H](N)C1CCCCC1 | 790 | > 400
O=C(NCc1cccs1)[C@@H]1CCCN1C(=O)CCc1ccc(Cl)cc1 | 700 | > 400
CCCNC(=O)[C@@H]1CCCN1C(=O)Cc1ccc2c(c1)OCO2 | > 1000 | > 400
O=C(NCc1cccs1)[C@@H]1CCCN1C(=O)CC1(O)c2ccccc2-c2ccccc21 | 23 | 49
N[C@@H](C(=O)N1CCC[C@H]1C(=O)NCc1cccs1)C1CCCCC1 | 1.1 | 4.2
CCCNC(=O)[C@@H]1CCCN1C(=O)[C@H](N)C1CCCCC1 | 27 | 120
COCCNC(=O)[C@@H]1CCCN1C(=O)[C@H](N)C1CCCCC1 | 110 | > 400
CNC(=O)[C@@H]1CCCN1C(=O)[C@H](N)Cc1ccc(Cl)cc1 | 550 | > 400
O=C(NCc1cccs1)[C@@H]1CCCN1C(=O)CC1CCCCC1 | 1000 | > 400
CCCNC(=O)[C@@H]1CCCN1C(=O)CC1CCCCC1 | > 1000 | > 400
CNC(=O)[C@@H]1CCCN1C(=O)[C@H](N)C(c1ccccc1)c1ccccc1 | 38 | 230
CCCNC(=O)[C@@H]1CCCN1C(=O)CC1(O)c2ccccc2-c2ccccc21 | 99 | 380
COCCNC(=O)[C@@H]1CCCN1C(=O)Cc1ccc2c(c1)OCO2 | > 1000 | > 400
CNC(=O)[C@@H]1CCCN1C(=O)CCc1ccc(Cl)cc1 | > 1000 | > 400
COCCNC(=O)[C@@H]1CCCN1C(=O)CC(c1ccccc1)c1ccccc1 | > 1000 | > 400
